{"source": "patent US20150150888A1", "about": "“COMBINATION OF SELECTIVE PROGESTERONE-RECEPTOR MODULATORS AND NONSTEROIDAL ANTI-INFLAMMATORY DRUGS” (LABORATOIRE HRA-PHARMA, priority 2012, published 2015)", "key": {"[1]": {"test_system": "LH-induced ovarian follicle rupture", "test": "ovarian hyperstimulation (superovulation) model: counting the oocytes released into the oviducts", "format": "in vivo, CD1 mice", "conditions": "for number of oocytes released into the oviducts compared with the control group: oocytes counted 18 h after hCG", "description": "The effect of the combined administration of ulipristal acetate (UPA) and of a non-steroidal anti-inflammatory agent (NSAID) on LH-induced ovarian follicle rupture was evaluated in an animal model of ovarian hyperstimulation (superovulation model).\n(§1) 24 to 28-day-old immature CD1 mice were subjected to ovarian hyperstimulation by injection of 5 IU of PMSG (pregnant mare's serum gonadotropin) followed, 48 h later, by 5 IU of hCG (chorionic gonadotropin hormone) intraperitoneally. The mice were divided up into several groups, each of 10 mice. 8 hours after the hCG injection, the mice were administered, intraperitoneally, with either the compound(s) to be tested, or the placebo (vehicle). The mice were euthanized 18 hours after the hCG injection. The effect of the compound(s) on follicular rupture and therefore ovulation was determined by counting the oocytes released into the oviducts. In experiment series No. 2, a morphological and histological examination of the ovaries was carried out so as to evaluate the presence of unruptured follicles and/or of yellow bodies in the ovaries of each group of animals.\nSeries 1: • Group 1: placebo • Group 2: 3 mg/kg of piroxicam • Group 3: 10 mg/kg of piroxicam • Group 4: 30 mg/kg of piroxicam.\nSeries 2: • Group 1: placebo • Group 2: 40 mg/kg of ulipristal acetate • Group 3: 40 mg/kg of ulipristal acetate+3 mg/kg of piroxicam • Group 4: 40 mg/kg of ulipristal acetate+30 mg/kg of piroxicam. […]"}, "[2]": {"test_system": "LH-induced ovarian follicle rupture", "test": "morphological and histological examination of the ovaries (unruptured follicles, yellow bodies) in the superovulation model", "format": "in vivo, CD1 mice", "conditions": "40 mg/kg UPA in the absence of piroxicam, compared with groups 3 and 4", "description": "as §1"}, "[3]": {"test_system": "follicular rupture", "conditions": "administration after the LH peak; cited from earlier work"}, "[4]": {"conditions": "single dose of 30 mg within 72 or 120 hours after sexual intercourse; cited from earlier work"}}, "data": [{"smiles": "CN1C(C(=O)Nc2ccccn2)=C(O)c2ccccc2S1(=O)=O", "note": "[piroxicam]", "values": [{"measurement": "number of oocytes released into the oviducts compared with the control group", "setting": "[1]; piroxicam 3 mg/kg i.p. 8 h after hCG", "result": "does not significantly reduce"}, {"measurement": "number of oocytes released into the oviducts compared with the control group", "setting": "[1]; piroxicam 10 mg/kg i.p. 8 h after hCG", "result": "does not significantly reduce"}, {"measurement": "number of oocytes released into the oviducts compared with the control group", "setting": "[1]; piroxicam 30 mg/kg i.p. 8 h after hCG", "result": "significantly reduce"}]}, {"smiles": "CC(=O)O[C@]1(C(C)=O)CCC2C3CCC4=CC(=O)CCC4=C3[C@@H](c3ccc(N(C)C)cc3)C[C@@]21C", "note": "(stereo partly drawn) [ulipristal acetate, 17α-acetoxy-11β-[4-N,N-dimethylaminophenyl)-19-norpregna-4,9-diene-3,20-dione]", "values": [{"measurement": "mean number of oocytes released compared with the control group", "setting": "[1]; 40 mg/kg UPA 8 h after hCG injection, piroxicam series 2", "result": "approximately −50%"}, {"measurement": "number of oocytes released compared with the control group", "setting": "[1]; group 2: 40 mg/kg ulipristal acetate, ibuprofen series 2", "result": "significant decrease"}, {"measurement": "yellow bodies (corpus luteum) in histological sections", "setting": "[2]", "result": "more numerous"}, {"measurement": "inhibition of follicular rupture during the 5 days following administration, cases", "setting": "[3]", "result": 8.3, "unit": "%"}, {"measurement": "prevention of unwanted pregnancy after unprotected or poorly protected sexual intercourse", "setting": "[4]", "result": "safe and effective"}]}, {"smiles": "CC(C)Cc1ccc(C(C)C(=O)O)cc1", "note": "(stereo not drawn) [ibuprofen]", "values": [{"measurement": "effect on ovulation compared with the control group", "setting": "[1]; ibuprofen alone, dose between 15 mg and 150 mg (per kg)", "result": "no significant effect"}]}]}
